Assay results taken from ChEMBL document CHEMBL3804819, “2-(Quinolin-4-yloxy)acetamides Are Active against Drug-Susceptible and Drug-Resistant Mycobacterium tuberculosis Strains” (ACS Med Chem Lett, 2016).
≈ marks a conversion by molar mass, not a printed value.

Columns and labels:
Assay type in all cases: functional
[1] = tested on: Mycobacterium tuberculosis; assay: Antibacterial activity against multidrug-resistant Mycobacterium tuberculosis PE-003 clinical isolate harboring inhA C(-15)T mutant assessed as reduction in bacterial growth after 7 days by resazurin assay
[2] = tested on: Mycobacterium tuberculosis; assay: Selectivity ratio of MIC for isoniazid-resistant Mycobacterium tuberculosis RS-032 clinical isolate harboring katG S315T mutant to MIC for Mycobacterium tuberculosis H37Rv
[3] = tested on: Mycobacterium tuberculosis; assay: Antibacterial activity against isoniazid-resistant Mycobacterium tuberculosis RS-036 clinical isolate harboring inhA C(-15)T mutant assessed as reduction in bacterial growth after 7 days by resazurin assay
[4] = tested on: Mycobacterium tuberculosis; assay: Antibacterial activity against isoniazid-resistant Mycobacterium tuberculosis RS-032 clinical isolate harboring katG S315T mutant assessed as reduction in bacterial growth after 7 days by resazurin assay

Row | Compound | MIC [1] [µM] | Selectivity ratio [2] | MIC [3] [µM] | MIC [4] [µM]
1 | COc1ccc2nc(C)cc(OCC(=O)Nc3ccccc3OC)c2c1 | 0.06 (≈ 0.0211 µg/mL) | 2 | 0.44 (≈ 0.155 µg/mL) | 0.88 (≈ 0.31 µg/mL)
2 | COc1ccc2nc(C)cc(OCC(=O)NCc3ccccc3)c2c1 | 0.46 (≈ 0.155 µg/mL) | 2 | 1.85 (≈ 0.622 µg/mL) | 3.71 (≈ 1.25 µg/mL)
3 | COc1ccc2nc(C)cc(OCC(=O)Nc3ccc4c(c3)OCO4)c2c1 | 0.21 (≈ 0.0769 µg/mL) | 2 | 0.85 (≈ 0.311 µg/mL) | 3.41 (≈ 1.25 µg/mL)
4 | COc1ccc2nc(C)cc(OCC(=O)Nc3ccc4ccccc4c3)c2c1 | 0.05 (≈ 0.0186 µg/mL) | 2 | 0.1 (≈ 0.0372 µg/mL) | 0.84 (≈ 0.313 µg/mL)
5 | COc1ccc2nc(C)cc(OCC(=O)Nc3ccc(C(F)(F)F)cc3)c2c1 | 0.1 (≈ 0.039 µg/mL) | – | 0.8 (≈ 0.312 µg/mL) | 1.6 (≈ 0.625 µg/mL)
6 | COc1ccc2nc(C)cc(OCC(=O)Nc3ccccc3)c2c1 | 0.24 (≈ 0.0774 µg/mL) | 2 | 0.48 (≈ 0.155 µg/mL) | 1.93 (≈ 0.622 µg/mL)
7 | COc1ccc2nc(C)cc(OCC(=O)Nc3ccccc3C)c2c1 | 0.11 (≈ 0.037 µg/mL) | 2 | 0.46 (≈ 0.155 µg/mL) | 0.93 (≈ 0.313 µg/mL)
8 | COc1ccc2nc(C)cc(OCC(=O)Nc3ccc(Cl)cc3)c2c1 | 0.06 (≈ 0.0214 µg/mL) | 2 | 0.44 (≈ 0.157 µg/mL) | 0.87 (≈ 0.31 µg/mL)
9 | COc1ccc2nc(C)cc(OCC(=O)Nc3ccc(Br)cc3)c2c1 | 0.05 (≈ 0.0201 µg/mL) | 2 | 0.39 (≈ 0.156 µg/mL) | 0.78 (≈ 0.313 µg/mL)
10 | COc1cccc(NC(=O)COc2cc(C)nc3ccc(OC)cc23)c1 | 0.44 (≈ 0.155 µg/mL) | 2 | 1.77 (≈ 0.624 µg/mL) | 7.08 (≈ 2.49 µg/mL)
11 | COc1ccc2nc(C)cc(OCC(=O)Nc3ccccc3Cl)c2c1 | 0.11 (≈ 0.0392 µg/mL) | – | 0.44 (≈ 0.157 µg/mL) | 1.75 (≈ 0.624 µg/mL)
12 | COc1ccc(NC(=O)COc2cc(C)nc3ccc(OC)cc23)cc1 | 0.06 (≈ 0.0211 µg/mL) | 2 | 0.44 (≈ 0.155 µg/mL) | 0.88 (≈ 0.31 µg/mL)
13 | COc1ccc2nc(C)cc(OCC(=O)Nc3cccc(Cl)c3)c2c1 | 0.22 (≈ 0.0785 µg/mL) | – | 0.87 (≈ 0.31 µg/mL) | 3.5 (≈ 1.25 µg/mL)
14 | COc1ccc(NC(=O)COc2cc(C)nc3ccc(OC)cc23)c(OC)c1 | 0.2 (≈ 0.0765 µg/mL) | 2 | 0.41 (≈ 0.157 µg/mL) | 0.81 (≈ 0.31 µg/mL)
15 | NNC(=O)c1ccncc1 [ISONIAZID] | >70 | – | >70 | >70
